Values joined by “and” are separate entries in the source; they are usually repeats but may differ in a detail not shown here. Equal values may be shown once.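 48-hour exposure; five concentrations; linearly interpolated endpoints. GI50 marks 50% less growth. Definition used: TGI = concentration required for complete inhibition of growth.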
What was measured:
Assay in all cases: NCI-60 cell line screen, 48 h
A549 NSCLC = tested on: A549 NSCLC
SR leukemia = tested on: SR leukemia
NCI-H460 lung = tested on: NCI-H460 lung
MDA-MB-435 = tested on: MDA-MB-435
OVCAR-3 ovarian = tested on: OVCAR-3 ovarian
786-0 renal = tested on: 786-0 renal
OVCAR-8 ovarian = tested on: OVCAR-8 ovarian
UACC-257 melanoma = tested on: UACC-257 melanoma
UACC-62 melanoma = tested on: UACC-62 melanoma
OVCAR-5 ovarian = tested on: OVCAR-5 ovarian

| SMILES | GI50 (A549 NSCLC) | TGI (A549 NSCLC) [µM] | GI50 (SR leukemia) [µM] | TGI (SR leukemia) [µM] | GI50 (NCI-H460 lung) | TGI (NCI-H460 lung) | GI50 (MDA-MB-435) | TGI (MDA-MB-435) | GI50 (OVCAR-3 ovarian) | TGI (OVCAR-3 ovarian) | GI50 (786-0 renal) | TGI (786-0 renal) [µM] | GI50 (OVCAR-8 ovarian) | TGI (OVCAR-8 ovarian) | GI50 (UACC-257 melanoma) | TGI (UACC-257 melanoma) | GI50 (UACC-62 melanoma) | TGI (UACC-62 melanoma) | GI50 (OVCAR-5 ovarian) | TGI (OVCAR-5 ovarian) |
| --- | --- | --- | --- | --- | --- | --- | --- | --- | --- | --- | --- | --- | --- | --- | --- | --- | --- | --- | --- | --- |
| O=[N+]([O-])c1cnc(Sc2ccncn2)c([N+](=O)[O-])c1 | 32.6 µM | > 100 | 2.67 | > 100 | 23 µM | 49.4 µM | 4.91 µM | 18.1 µM | 1.76 µM | 3.17 µM | 12.2 µM | 25 | 11.7 µM | 25 µM | 1.78 µM | 3.38 µM | 10.5 µM | 22.3 µM | 16.3 µM | 31.7 µM |
| Cc1ccc(NC(c2ccccc2)c2ccc3cccnc3c2O)cc1 (stereo not given) |  | 41.3 |  | 14.4 |  | > 25 µM |  | 19.3 µM |  | 7.58 µM |  | 15.1 |  | 11.1 µM |  | 25.8 µM |  | 18.3 µM |  | 22.2 µM |
| O=C1/C(=C/c2cccc([N+](=O)[O-])c2)COc2ccc(O)c(O)c21 | 2.06 µM | 6.37 | 0.364 | 7.94 | 2.08 µM | 4.97 µM | 1.69 µM | 3.77 µM | 1.2 µM | 2.71 µM | 1.35 µM | 2.85 | 2.35 µM | 13.3 µM | 1.86 µM | 4.81 µM | 1.57 µM | 2.98 µM | 1.8 µM | 3.44 µM |
| COc1cc2oc(=O)cc(C)c2cc1[N+](=O)[O-] |  | > 100 |  | > 100 |  | > 100 µM |  | 46.8 µM |  | 64.1 µM |  | 49.5 |  | 40.7 µM |  | 33.5 µM |  | 34.6 µM |  | > 79 µM |
| C[Si](C)(C)C#CCO[Si](C)(C)C |  | > 100 |  | > 61.5 |  | > 100 µM |  | > 100 µM |  | > 100 µM |  | > 78.8 |  | > 100 µM |  | > 100 µM |  | > 100 µM |  | > 100 µM |
| Cc1cc2c(c3c1c1ccccc1n3C)C(=O)C=CC2=O |  | > 100 |  | 4.56 |  | > 100 µM |  | > 100 µM |  | 22.9 µM |  | 17.3 |  | 56.4 µM |  | 69 µM |  | 51.1 µM |  | > 100 µM |
| CS(=O)(=O)c1ccc(Oc2cc(F)cc(C#N)c2)c2c1[C@H](O)[C@H](F)[C@@H]2F | > 100 µM | > 100 | > 100 | > 100 | > 100 µM | > 100 µM | > 100 µM | > 100 µM | > 100 µM | > 100 µM | > 100 µM | > 100 | > 100 µM | > 100 µM | > 100 µM | > 100 µM | > 100 µM | > 100 µM | > 100 µM | > 100 µM |
| C=C1C(=O)O[C@H]2[C@H]1CC/C(COC(=O)C(=O)c1c[nH]c3ccccc13)=C\CC[C@@]1(C)O[C@@H]21 | 2.27 µM | 6.08 | 1.55 | 14.3 | 4.03 µM | 20.7 µM | 2.63 µM | 9.82 µM | 1.86 µM | 4.63 µM | 1.84 µM | 3.72 | 3.14 µM | 12.7 µM | 1.64 µM | 3.53 µM | 1.89 µM | 4.29 µM | 2.35 µM | 6.42 µM |
| CC(C)C[C@@H](NC(=O)[C@@H](Cc1ccccc1)NC(=O)c1cnccn1)B1O[C@H]2[C@H](O)[C@@H](C(=O)NCCCC[C@@H]3NC(=O)[C@@H](Cc4ccccc4)NC(=O)[C@H](CC(=O)O)NC(=O)CNC(=O)[C@H](CCCN=C(N)N)NC3=O)O[C@@H](CN)[C@H]2O1 | 0.0288 µM and 0.0148 µM | 0.658 | 0.00261 |  | 0.0344 µM and 0.0179 µM | 0.135 µM and 0.185 µM | 0.00287 µM and < 0.005 µM | 0.00891 µM and < 0.005 µM | 0.00339 µM and 0.005 µM | 0.0106 µM and 0.0104 µM | 0.00465 µM and 0.005 µM |  | 0.0365 µM and 0.0139 µM | 0.622 µM and 0.0987 µM | 0.0135 µM and 0.005 µM | 0.0812 µM and 0.0183 µM | 0.00439 µM and 0.005 µM | 0.0408 µM and 0.014 µM | 0.0135 µM and 0.0196 µM | 0.0978 µM and 0.799 µM |
| S=CN1CCCCC1 |  | > 100 |  | > 100 |  | > 100 µM |  | > 100 µM |  | > 100 µM |  | > 100 |  | > 100 µM |  | > 100 µM |  | > 100 µM |  | > 100 µM |
| CC(C)(C)[OH+][O-].[O-]c1ccc(Cl)cc1C=Nc1ccc(Cl)cc1[O-].[O]=[V] | 17.1 µM | > 100 | 7.79 | > 100 | 18 µM | 46.3 µM | 14.6 µM | > 100 µM | 13.5 µM | 40.5 µM | 3.73 µM | 27.1 | 23 µM | > 100 µM | 13.9 µM | 36.4 µM | 10.7 µM | 37.5 µM | 18.4 µM | 47.3 µM |
| O=C1c2ccccc2-c2c1c1ccccc1c(=O)n2CCCNCCCn1c2c(c3ccccc3c1=O)C(=O)c1ccccc1-2 | 2.01 µM | > 50 | 14.3 | > 50 | 2.31 µM | > 17.7 µM | 9.34 µM | 22.9 µM | 5.42 µM | 16.5 µM | 8.53 µM | 29.8 | 2.46 µM | > 26 µM | 10.2 µM | 25.7 µM | 7.52 µM | 16.4 µM | 3.04 µM | 6.08 µM |
| CCN1C(=O)C/C(=C\C(C)=O)Nc2ccccc21 |  | > 100 |  | > 100 |  | > 100 µM | > 100 µM | > 100 µM |  | > 100 µM |  | > 100 |  | > 100 µM | > 100 µM | > 100 µM |  | > 100 µM |  | > 100 µM |
| COc1cccc(-c2nn(-c3ccccc3)cc2-c2ccnc(NCCNS(=O)(=O)c3ccc(Cl)cc3)c2)c1 | 5.86 µM | > 100 | 2.25 | 6.59 | 5.15 µM | > 100 µM | 3.81 µM | > 100 µM | 4.32 µM | > 100 µM | 6.61 µM | > 100 | 7.54 µM | > 100 µM | 7.03 µM | 44.9 µM | 5.51 µM | > 100 µM | > 100 µM | > 100 µM |
| COc1ccc(C(=O)Cn2c(C(=O)c3ccc(Cl)cc3)nc3ccccc32)cc1 | 29.8 µM | > 100 | 2.2 | > 22.4 | 25.2 µM | > 100 µM | 2.23 µM | > 23.2 µM | > 20.3 µM | > 77.6 µM | 13.2 µM | > 27.3 | > 100 µM | > 100 µM | > 100 µM | > 100 µM | > 28.4 µM | > 100 µM | > 66.3 µM | > 100 µM |
| Oc1c(CN2CCC(N3CCOCC3)CC2)cc(Cc2cc(CN3CCC(N4CCOCC4)CC3)c(O)c3ncccc23)c2cccnc12 | 1.62 µM | 12.5 | 0.593 | 20.5 | 0.471 µM | 16.6 µM | 2.01 µM | 74.7 µM | 0.976 µM | 11.9 µM | 1.07 µM | 17.7 | 1.57 µM | 21.9 µM | 3.62 µM | 16.3 µM | 0.434 µM | 5.29 µM | 2.14 µM | > 100 µM |
| O=[N+]([O-])c1ccc(N2CCN(Cc3ccccc3)CC2)c2c1no[n+]2[O-] | 1.5 µM | 3.19 | 0.0751 | 0.973 | 1.61 µM | 3.52 µM | 1.72 µM | 3.38 µM | 1.52 µM | 2.96 µM | 1.72 µM | 3.18 | 1.59 µM | 5.25 µM | 1.68 µM | 3.86 µM | 1.48 µM | 3.4 µM | 4.15 µM | 8.77 µM |
| O=C(/C=C/c1ccco1)c1ccc(Nc2nc(Nc3ccc(F)cc3)nc(Nc3ccc(Cl)cc3)n2)cc1 | 22.3 µM | > 100 | > 20.7 | > 44.5 | 9.29 µM | 31.9 µM | 30.5 µM | > 59.6 µM | 18 µM | 56.8 µM | > 34.3 µM | > 49.4 | 18.3 µM | 57.3 µM | 15.2 µM | > 57.4 µM | > 37.4 µM | > 59.5 µM | > 100 µM | > 100 µM |
| CN(C)/[N+]([O-])=N/Oc1cc(Nc2cccc(C(=O)O)c2)c([N+](=O)[O-])cc1[N+](=O)[O-] | > 100 µM | > 100 | 43.9 | > 100 | > 100 µM | > 100 µM | > 100 µM | > 100 µM | 5.45 µM | 22.7 µM | > 100 µM | > 100 | > 100 µM | > 100 µM | > 100 µM | > 100 µM | 50.1 µM | > 100 µM | > 100 µM | > 100 µM |

— PubChem BioAssay (NCI)
